From the supplement of paper PMC8149375

Key:
Conditions in all cases: treatment: drug alone; 5 days
[1] = tested on: CAKI-1; assay: minimum viability across doses, drug alone, relative to DMSO (fraction); higher = less growth inhibition
Method: (§1)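 Primary HTS: 8 RCC cell lines treated with 8 doses (up to 10 uM) of each library drug alone for 5 days; viability read by CellTiter-Glo and normalised to DMSO. GI50 was fitted with XLfit (4-parameter), AUC is the area under the dose-response curve, and minimum viability is the lowest fraction of DMSO viability across doses.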

[2] = tested on: A498; assay: as above
Method: as §1

[3] = tested on: 786-O; assay: as above
Method: as §1

[4] = tested on: UO-31; assay: as above
Method: as §1

[5] = tested on: ACHN; assay: as above
Method: as §1

[6] = tested on: 769-P; assay: as above
Method: as §1

[7] = tested on: TK-10; assay: as above
Method: as §1

[8] = tested on: SN12C; assay: as above
Method: as §1

[9] = tested on: CAKI-1; assay: GI50, drug alone; higher = less potent
Method: as §1

[10] = tested on: A498; assay: GI50, drug alone; higher = less potent
Method: as §1

[11] = tested on: 786-O; assay: GI50, drug alone; higher = less potent
Method: as §1

[12] = tested on: UO-31; assay: GI50, drug alone; higher = less potent
Method: as §1

[13] = tested on: ACHN; assay: GI50, drug alone; higher = less potent
Method: as §1

[14] = tested on: 769-P; assay: GI50, drug alone; higher = less potent
Method: as §1

[15] = tested on: TK-10; assay: GI50, drug alone; higher = less potent
Method: as §1

[16] = tested on: SN12C; assay: GI50, drug alone; higher = less potent
Method: as §1

[17] = tested on: CAKI-1; assay: AUC of dose-response viability curve, drug alone (arbitrary (AUC of normalised viability)); higher = less growth inhibition
Method: as §1

[18] = tested on: A498; assay: as above
Method: as §1

[19] = tested on: 786-O; assay: as above
Method: as §1

[20] = tested on: UO-31; assay: as above
Method: as §1

[21] = tested on: ACHN; assay: as above
Method: as §1

[22] = tested on: 769-P; assay: as above
Method: as §1

[23] = tested on: TK-10; assay: as above
Method: as §1

[24] = tested on: SN12C; assay: as above
Method: as §1

| Structure (SMILES) | minimum viability across doses [1] | minimum viability across doses [2] | minimum viability across doses [3] | minimum viability across doses [4] | minimum viability across doses [5] | minimum viability across doses [6] | minimum viability across doses [7] | minimum viability across doses [8] | GI50, drug alone [9] | GI50, drug alone [10] | GI50, drug alone [11] | GI50, drug alone [12] | GI50, drug alone [13] | GI50, drug alone [14] | GI50, drug alone [15] | GI50, drug alone [16] | AUC of dose-response viability curve [17] | AUC of dose-response viability curve [18] | AUC of dose-response viability curve [19] | AUC of dose-response viability curve [20] | AUC of dose-response viability curve [21] | AUC of dose-response viability curve [22] | AUC of dose-response viability curve [23] | AUC of dose-response viability curve [24] |
| --- | --- | --- | --- | --- | --- | --- | --- | --- | --- | --- | --- | --- | --- | --- | --- | --- | --- | --- | --- | --- | --- | --- | --- | --- |
| Cc1cnc(Nc2ccc(OCCN3CCCC3)cc2)nc1Nc1cccc(S(=O)(=O)NC(C)(C)C)c1 | 0.00962 | 0.0772 | 0.00721 | 0.013 | 0.00347 | 0.0319 | 0.00422 | 0.00707 | 1.03 µM | 5.64 µM | 1.9 µM | 2.74 µM | 0.662 µM | 3.4 µM | 0.758 µM | 2.31 µM | 2.54 | 3.49 | 2.76 | 3.79 | 2.25 | 3.09 | 2.19 | 2.71 |
| Cc1cccc(-c2nc(C(C)(C)C)[nH]c2-c2ccc3nccnc3c2)n1 | 0.603 | 0.302 | 0.589 | 0.569 | 0.87 | 0.795 | 0.676 | 0.21 | > 10 µM | 9.45 µM | > 10 µM | > 10 µM | > 10 µM | > 10 µM | > 10 µM | 5.55 µM | 3.35 | 3.88 | 2.63 | 5.79 | 3.38 | 3.25 | 2.9 | 3.02 |
| Cc1[nH]c(/C=C2/C(=O)Nc3ccc(S(=O)(=O)N(C)c4cccc(Cl)c4)cc32)c(C)c1C(=O)N1CCN(C)CC1 | 0.425 | 0.916 | 0.265 | 1.15 | 0.247 | 0.763 | 0.753 | 0.412 | 8.22 µM | > 10 µM | 5.22 µM | > 10 µM | 0.0547 µM | > 10 µM | > 10 µM | 8.02 µM | 3.3 | 3.89 | 2.76 | 4.97 | 2.06 | 3.4 | 3.36 | 3.01 |
| CC(C)(C)c1cnc(CSc2cnc(NC(=O)C3CCNCC3)s2)o1 | 0.0689 | 0.00845 | 0.0038 | 0.0096 | 0.00527 | 0.0214 | 0.156 | 0.012 | 0.558 µM | 0.147 µM | 0.134 µM | 0.269 µM | 0.258 µM | 1.44 µM | 0.501 µM | 0.149 µM | 2.39 | 1.58 | 1.5 | 1.87 | 1.76 | 2.51 | 2.22 | 1.69 |
| CNC(=O)Nc1ccc(-c2nc(N3CC4CCC(C3)O4)c3cnn(C4CCC5(CC4)OCCO5)c3n2)cc1 | 0.042 | 0.09 | 0.00279 | 0.00242 | 0.0487 | 0.101 | 0.0905 | 0.126 | 0.0567 µM | 0.23 µM | 0.0414 µM | 0.0343 µM | 0.0587 µM | 0.122 µM | 0.0812 µM | 0.0971 µM | 1.31 | 2.28 | 1.25 | 1.01 | 1.4 | 1.66 | 1.52 | 1.64 |
| O=C1NC(=O)C(c2ccccc2[N+](=O)[O-])=C1Nc1ccc(O)c(Cl)c1 | 0.869 | 0.922 | 0.559 | 0.634 | 0.879 | 0.898 | 0.804 | 0.802 | > 10 µM | > 10 µM | > 10 µM | > 10 µM | > 10 µM | > 10 µM | > 10 µM | > 10 µM | 3.4 | 3.58 | 2.33 | 4 | 3.39 | 3.29 | 3.02 | 3.05 |
| Nc1nc(N)c2nc(-c3cccc(O)c3)cnc2n1 | 0.275 | 0.252 | 0.0664 | 0.588 | 0.35 | 0.971 | 0.32 | 0.254 | 6.29 µM | 9.22 µM | 2.47 µM | > 10 µM | 5.79 µM | > 10 µM | 5.11 µM | 3.88 µM | 3.43 | 3.31 | 2.45 | 4.59 | 3.02 | 3.59 | 2.98 | 2.97 |
| CCn1c(N)c(C(=O)NC)c(=O)c2ccc(C#C[C@@](C)(O)COC)nc21 | 0.845 | 0.887 | 0.869 | 0.992 | 0.909 | 1.02 | 0.9 | 0.849 | > 10 µM | > 10 µM | > 10 µM | > 10 µM | > 10 µM | > 10 µM | > 10 µM | > 10 µM | 3.62 | 3.88 | 3.31 | 4.24 | 3.52 | 3.92 | 3.45 | 3.44 |
| Oc1ccc(-c2nc(-c3ccc(F)cc3)c(-c3ccncc3)[nH]2)cc1 | 0.637 | 1.02 | 0.65 | 0.308 | 0.473 | 0.904 | 0.659 | 0.936 | > 10 µM | > 10 µM | > 10 µM | > 10 µM | 9.97 µM | > 10 µM | > 10 µM | > 10 µM | 3.25 | 4.09 | 3.04 | 4.47 | 2.91 | 3.41 | 2.88 | 3.4 |
| NC(=O)c1ccc(-c2nc(-c3ccc4c(c3)OCO4)c(-c3ccccn3)[nH]2)cc1 | 0.723 | 0.906 | 0.578 | 0.941 | 0.564 | 0.838 | 0.613 | 0.556 | > 10 µM | > 10 µM | > 10 µM | > 10 µM | > 10 µM | > 10 µM | > 10 µM | > 10 µM | 3.3 | 3.96 | 2.72 | 4.85 | 3.21 | 3.26 | 2.89 | 2.86 |
| Cn1cc(C2=C(c3ccc(Cl)cc3Cl)C(=O)NC2=O)c2ccccc21 | 0.839 | 0.907 | 0.814 | 0.801 | 0.821 | 0.386 | 0.629 | 0.908 | > 10 µM | > 10 µM | > 10 µM | > 10 µM | > 10 µM | 8.53 µM | > 10 µM | > 10 µM | 0.987 | 3.79 | 3.26 | 3.98 | 3.26 | 3.2 | 3.26 | 3.43 |
| Nc1ccc(C(=O)Nc2cccc(-c3nc(N4CCOCC4)c4oc5ncccc5c4n3)c2)cn1 | 0.153 | 0.527 | 0.00412 | 0.0163 | 0.207 | 0.0884 | 0.11 | 0.46 | 1.19 µM | > 10 µM | 1.11 µM | 8.08 µM | 1.87 µM | 3.14 µM | 1.7 µM | 8.23 µM | 2.63 | 4.39 | 2.4 | 5.57 | 2.63 | 3.04 | 2.64 | 3 |
| O=C1c2ccccc2-c2n[nH]c3cccc1c23 | 0.251 | 0.999 | 0.545 | 0.52 | 0.421 | 0.799 | 0.562 | 0.822 | 6.06 µM | > 10 µM | > 10 µM | > 10 µM | 8.89 µM | > 10 µM | > 10 µM | > 10 µM | 3.09 | 4.19 | 2.81 | 3.08 | 3.44 | 3.24 | 3.07 | 3.37 |
| C[C@@H]1CCN(C(=O)CC#N)C[C@@H]1N(C)c1ncnc2[nH]ccc12 | 0.98 | 0.909 | 0.804 | 0.876 | 0.893 | 0.988 | 0.806 | 0.935 | > 10 µM | > 10 µM | > 10 µM | > 10 µM | > 10 µM | > 10 µM | > 10 µM | > 10 µM | 3.66 | 3.8 | 3.54 | 4.6 | 3.3 | 3.63 | 3.14 | 3.63 |
| N#CC[C@H](C1CCCC1)n1cc(-c2ncnc3[nH]ccc23)cn1 | 0.965 | 1.24 | 0.433 | 1.25 | 0.779 | 0.876 | 0.833 | 0.945 | > 10 µM | > 10 µM | 8.76 µM | > 10 µM | > 10 µM | > 10 µM | > 10 µM | > 10 µM | 3.82 | 4.75 | 3.06 | 4.92 | 3.14 | 3.4 | 3.2 | 3.53 |
| CS(=O)c1ccc(-c2nc(-c3ccc(F)cc3)c(-c3ccncc3)[nH]2)cc1 (configuration not stated) | 0.931 | 1.12 | 0.774 | 1.06 | 0.577 | 0.892 | 0.713 | 0.84 | > 10 µM | > 10 µM | > 10 µM | > 10 µM | 0.142 µM | > 10 µM | > 10 µM | > 10 µM | 3.69 | 4.51 | 3.47 | 4.33 | 2.51 | 3.37 | 2.98 | 3.43 |
| CN(C)CCOc1ccc(-c2nc(-c3ccncc3)c(-c3ccc4c(c3)CC/C4=N/O)[nH]2)cc1 | 0.308 | 0.0435 | 0.0071 | 0.573 | 0.167 | 0.177 | 0.575 | 0.706 | 9.32 µM | 8.04 µM | 7.91 µM | > 10 µM | 8.61 µM | 8.71 µM | > 10 µM | > 10 µM | 3.77 | 4.26 | 2.94 | 5.65 | 3.51 | 3.44 | 3.35 | 3.3 |
| C[C@@H](N)[C@H]1CC[C@H](C(=O)Nc2ccncc2)CC1.Cl.Cl | 0.859 | 0.87 | 0.802 | 0.96 | 0.908 | 0.895 | 0.887 | 0.909 | > 10 µM | > 10 µM | > 10 µM | > 10 µM | > 10 µM | > 10 µM | > 10 µM | > 10 µM | 3.45 | 3.58 | 3.36 | 4.59 | 3.73 | 3.37 | 3.46 | 3.55 |
